Holding throughout (experiment): ≥ marks a high value that may be exact or a test limit, other limits are often not marked, values filed in µg/mL are converted to µM
Assay [1] concerns Candida parapsilosis ATCC 22019.
Assay [2] concerns Staphylococcus aureus ATCC BAA-44.
Assay [3] concerns Pseudomonas aeruginosa ATCC 27853.
For assay [4], the system named is Enterococcus faecalis ATCC 29212.
For assay [5], the system named is Saccharomyces cerevisiae.
Assay [6] deals with Escherichia coli NCTC 10418.
The subject of assay [7] is Staphylococcus aureus ST1065.
Assay [8] concerns Staphylococcus aureus ATCC 43300.
Assay [9] concerns Candida albicans NCPF 1467.
In assay [10] the test system is Klebsiella pneumoniae ATCC 13883.
In assay [11] the test system is Acinetobacter baumannii ATCC 19606.
Assay [12] concerns Streptococcus pyogenes ATCC 19615.
Assay [13] deals with Escherichia coli ATCC 25922.
Assay [14] has as its system Staphylococcus aureus NCTC 10788.
For assay [15], the system named is Staphylococcus aureus ATCC 25923.
Assay [16] concerns Escherichia coli ML-35p.
Assay [17] concerns Staphylococcus epidermidis.
Assay [18] deals with Leuconostoc lactis.
Assay [19] relates to Escherichia coli.
Assay [20] relates to Bacillus cereus.
In assay [21] the test system is Staphylococcus aureus.
Assay [22] has as its system Micrococcus luteus.
The test system of assay [23] is Pasteurella multocida.
Assay [24] deals with Streptococcus uberis.
Assay [25] has as its system Listeria innocua.

In brackets after ≈: the same amount, converted by molar mass.

`CC[C@H](C)[C@H](NC(=O)[C@H](CO)NC(=O)[C@H](C)NC(=O)[C@@H](NC(=O)CNC(=O)[C@H](CO)NC(=O)[C@@H](NC(=O)[C@@H](NC(=O)[C@H](Cc1cnc[nH]1)NC(=O)[C@@H]1CCCN1C(=O)[C@@H](NC(=O)[C@H](CC(C)C)NC(=O)[C@H](CO)NC(=O)[C@H](CC(C)C)NC(=O)[C@@H](N)Cc1ccccc1)[C@@H](C)CC)[C@@H](C)CC)C(C)C)C(C)C)C(=O)N[C@@H](C)C(=O)N[C@@H](CCCCN)C(=O)N[C@@H](Cc1cnc[nH]1)C(=O)N[C@@H](Cc1ccccc1)C(N)=O` [FLSLIPHIVSGVASIAKHF]: the MIC in [1] is ≥ 100 µM; in assay [2] it was 6.25 µM (≈ 12.7 µg/mL); in assay [3], > 100 µM; in assay [4], 25 µM (≈ 50.9 µg/mL); in assay [5], 12.5 µM (≈ 25.4 µg/mL); in [6], ≥ 80 µM. Besides, the MIC in assay [7] was 6.25 µM (≈ 12.7 µg/mL); in assay [8], 6.25 µM (≈ 12.7 µg/mL); in assay [9], ≥ 100 µM; in assay [10] it was ≥ 100 µM; in assay [11], 6.25 µM (≈ 12.7 µg/mL); in [12], 3.12 µM (≈ 6.35 µg/mL). Besides, the MIC in assay [13] is 70 µM (≈ 142 µg/mL); in [14], 5 µM (≈ 10.2 µg/mL); in assay [15] it was 6.25 µM (≈ 12.7 µg/mL); in assay [16], ≥ 100 µM.

With `CC[C@H](C)[C@H](NC(=O)[C@H](CC(N)=O)NC(=O)[C@H](CCCCN)NC(=O)[C@@H](NC(=O)[C@@H](NC(=O)[C@H](CC(=O)O)NC(=O)[C@H](Cc1ccccc1)NC(=O)[C@H](CC(C)C)NC(=O)CN)[C@@H](C)CC)[C@@H](C)CC)C(=O)N[C@@H](Cc1ccccc1)C(=O)N[C@@H](CO)C(=O)NCC(=O)N[C@@H](CC(C)C)C(N)=O` [GLFDIIKNIFSGL], the MIC in assay [17] is ≥ 69.6 µM; in [18], 17.4 µM (≈ 25 µg/mL); in assay [19] it was > 69.6 µM; in [20], ≥ 69.6 µM; in [21], 69.6 µM (≈ 99.9 µg/mL); in assay [22], ≥ 69.6 µM. The MIC in assay [23], in [24] and in [25] was ≥ 69.6 µM each time.

As to `CC[C@H](C)[C@H](NC(=O)[C@H](C)NC(=O)[C@H](CC(C)C)NC(=O)[C@H](CO)NC(=O)[C@H](C)NC(=O)[C@@H](NC(=O)CNC(=O)[C@H](CO)NC(=O)[C@@H](NC(=O)[C@@H](NC(=O)[C@H](Cc1cnc[nH]1)NC(=O)[C@@H]1CCCN1C(=O)[C@@H](NC(=O)[C@H](CC(C)C)NC(=O)[C@H](CO)NC(=O)[C@H](CC(C)C)NC(=O)[C@@H](N)Cc1ccccc1)[C@@H](C)CC)[C@@H](C)CC)C(C)C)C(C)C)C(=O)N[C@@H](Cc1cnc[nH]1)C(=O)N[C@@H](Cc1ccccc1)C(N)=O` [FLSLIPHIVSGVASLAIHF], the MIC was ≥ 200 µM in [1]; ≥ 200 µM in assay [2]; > 200 µM in assay [3]; > 200 µM in assay [4]; ≥ 200 µM in assay [5]; ≥ 200 µM in [7]. Besides, the MIC in [8] is > 200 µM; in [10] it was ≥ 200 µM; in assay [11], > 200 µM; in assay [12] it was 12.5 µM (≈ 25.3 µg/mL); in [13], > 200 µM; in assay [15] it was > 200 µM. Also, the MIC in assay [16] is ≥ 200 µM.

Regarding `CC[C@H](C)[C@H](NC(=O)[C@H](CC(=O)O)NC(=O)[C@H](Cc1ccccc1)NC(=O)[C@H](CC(C)C)NC(=O)CN)C(=O)N[C@H](C(=O)N[C@@H](CCCCN)C(=O)N[C@@H](CCCCN)C(=O)N[C@H](C(=O)N[C@H](C(=O)NCC(=O)N[C@H](C(=O)N[C@H](C(=O)N[C@@H](C)C(=O)NCC(=O)N[C@@H](CC(C)C)C(N)=O)[C@@H](C)CC)[C@@H](C)O)C(C)C)C(C)C)C(C)C` [GLFDIVKKVVGTIAGL], the MIC in assay [17] was 15.3 µM (≈ 25 µg/mL); in [18], 7.36 µM (≈ 12 µg/mL); in assay [19], > 61.4 µM; in assay [20] it was 15.3 µM (≈ 25 µg/mL); in [21], 15.3 µM (≈ 25 µg/mL); in assay [22] it was 15.3 µM (≈ 25 µg/mL). The MIC was ≥ 61.4 µM in assay [23], 15.3 µM (≈ 25 µg/mL) in assay [24] and ≥ 61.4 µM in [25].

(Values after DBAASP.)
